Legend:
Assay type in all cases: cell-based
[1] = test system: human breast cancer (MCF-7) cell line; assay: Inhibition of tumour cell proliferation in vitro ([3H]thymidine incorporation), MCF-7; conditions: MCF7, MCF-7 cells, cultured 24 hours with compound, DNA synthesis by [3H]thymidine incorporation
Protocol: (§1) The inhibition of tumour cell proliferation was studied using different types of human cancer cell lines. The cell lines under investigation were small cell lung carcinoma (NYH), non small cell lung carcinoma (NCI-H460), and breast cancer (MCF-7) using the following general procedure:
(§2) The cells were cultured in vitro for 24 hours in the presence of the compound under investigation. DNA synthesis was measured by incorporation of [3H]thymidine, and the median inhibitory concentrations (IC50) of the compounds were calculated.

[2] = test system: human non small cell lung cancer (NCI-H460) cell line; assay: Inhibition of tumour cell proliferation in vitro ([3H]thymidine incorporation), NCI-H460; conditions: NCI-H460 cells, cultured 24 hours with compound, DNA synthesis by [3H]thymidine incorporation
Protocol: as §1, §2

[3] = test system: human small cell lung carcinoma (NYH) cell line; assay: Inhibition of tumour cell proliferation in vitro ([3H]thymidine incorporation), NYH; conditions: NYH cells, cultured 24 hours with compound, DNA synthesis by [3H]thymidine incorporation
Protocol: as §1, §2

Which IC50 [1] does the source give for `N#CNC(=Nc1ccncc1)NCCCCCCNC(=O)c1ccccc1` [Example No. 2, N-(6-Benzoylaminohexyl)-N′-cyano-N″-4-pyridylguanidine] here?
Its IC50 is 57 nM.

And the IC50 [2]?
The IC50 was 66 nM.

What about the IC50 [3] of the same compound?
The IC50 was 6.2 nM.

Which results are given for `N#CNC(=Nc1ccncc1)NCCCCCCOC(=O)c1ccc(Cl)cc1` [Example No. 4, N-(6-(4-Chlorobenzoyloxy)hexyl)-N′-cyano-N″-4-pyridylguanidine]?
IC50 [1]: 2.2 nM; IC50 [3]: 1.7 nM

Source: patent publication US6346541B1, “Cyanoguanidines as cell proliferation inhibitors” (Leo Pharmaceutical Products Ltd. A/S, priority 1997, dated 2002)
